The structures appear in SMILES notation.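 48-hour exposure; five concentrations; linearly interpolated endpoints. GI50 is the concentration that inhibits growth by half. Definition used: TGI = concentration required for complete inhibition of growth.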

Among the test systems are HCC-2998 colon; HL-60(TB) leukemia; HS 578T breast; HT29 colon; K-562 leukemia; MDA-MB-231 breast; MDA-MB-435; SF-268 CNS; UO-31 renal; CAKI-1 renal.
Holding throughout (test): NCI anticancer screen, dose series, 48 h

On to `COc1ccc(/C=C/[N+](=O)[O-])cc1`, for which the TGI in the assay on HCC-2998 colon is 2.73 µM; in the assay with HL-60(TB) leukemia it was 8.82 µM; in the assay on HS 578T breast, 36.6 µM; in the assay on HT29 colon it was 11.2 µM; in the assay with K-562 leukemia, greater than 100 µM; in the assay on MDA-MB-231 breast it was 55.3 µM. Besides, the TGI in the assay with MDA-MB-435 worked out at 4.21 µM; in the assay on SF-268 CNS it was 8.11 µM; in the assay with UO-31 renal, 41.3 µM.
On to `C#C[C@@]1(O)[C@@H](CO)O[C@@H](n2cc(F)c3c(N)ncnc32)[C@@H]1O`, for which the GI50 with HCC-2998 colon is 0.6 µM; in the assay with HL-60(TB) leukemia it was 0.436 µM; in the assay on HS 578T breast, 3.97 µM; in the assay on HT29 colon it was 0.207 µM; in the assay with K-562 leukemia it was 0.285 µM; in the assay on MDA-MB-231 breast it was 0.379 µM. Besides, the results for the GI50 with MDA-MB-435, with SF-268 CNS and in the assay with UO-31 renal were 0.416 µM, 0.751 µM and 0.47 µM, respectively. Moreover, the TGI in the assay with HCC-2998 colon is 2.82 µM; with HL-60(TB) leukemia, 3.53 µM; in the assay on HS 578T breast, greater than 100 µM; with HT29 colon, greater than 100 µM; in the assay with K-562 leukemia, greater than 100 µM; in the assay with MDA-MB-231 breast, 2.98 µM. Also, the TGI with MDA-MB-435 is 3.26 µM; in the assay with SF-268 CNS it was 78.3 µM; in the assay on UO-31 renal it was 2.48 µM.
Consider `N#CC1=C(N)Nc2nc3ccccc3n2C1c1ccccc1` (stereo unspecified), for which the TGI in the assay with CAKI-1 renal, in the assay on HL-60(TB) leukemia, with HS 578T breast, in the assay with HT29 colon, in the assay with K-562 leukemia and in the assay on MDA-MB-231 breast was greater than 100 µM throughout. In addition, the TGI in the assay with MDA-MB-435, in the assay on SF-268 CNS and in the assay on UO-31 renal was greater than 100 µM throughout.
As for `C[C@H](CCC1=NCCN1)[C@H]1CC[C@H]2[C@@H]3CC[C@@H]4C[C@H](O)CC[C@]4(C)[C@H]3CC[C@]12C`, the TGI in the assay with CAKI-1 renal is 20.2 µM; with HCC-2998 colon, 24.6 µM; in the assay on HS 578T breast it was 48.2 µM; with HT29 colon, 3.65 µM; with K-562 leukemia it was greater than 21.8 µM; with MDA-MB-231 breast it was greater than 41 µM. In addition, the TGI in the assay on MDA-MB-435 came out at 22 µM; in the assay on SF-268 CNS, 34.3 µM; in the assay with UO-31 renal it was 31.4 µM.
Turning to `O=C1OC2(c3ccc(O)cc3Oc3cc(O)ccc32)c2c1c(-c1ccccc1)c(-c1ccccc1)c(-c1ccccc1)c2-c1ccccc1`, the TGI with CAKI-1 renal stood at 62.8 µM; in the assay on HCC-2998 colon, 30 µM; in the assay with HL-60(TB) leukemia, 39.4 µM; with HS 578T breast it was 47.7 µM; with HT29 colon, 40.4 µM; in the assay on K-562 leukemia, 70 µM. Also, the TGI in the assay on MDA-MB-231 breast stood at 37.4 µM; in the assay with MDA-MB-435, 35.1 µM; in the assay on SF-268 CNS, 53.1 µM; in the assay on UO-31 renal, 63.7 µM.
For `Nc1nncs1`, the TGI in the assay on CAKI-1 renal was greater than 4630 µM; in the assay with HCC-2998 colon it was greater than 5000 µM; in the assay on HL-60(TB) leukemia, greater than 5000 µM; in the assay on HS 578T breast, greater than 5000 µM; in the assay on HT29 colon, greater than 3390 µM; in the assay with K-562 leukemia, greater than 5000 µM. Moreover, the TGI in the assay on MDA-MB-231 breast, in the assay with MDA-MB-435, with SF-268 CNS and in the assay with UO-31 renal was greater than 5000 µM throughout.
In the case of `NC(=O)c1cc(C2OC(CO)C(O)C2O)nn1-c1ccc([N+](=O)[O-])cc1` (stereo unspecified), the TGI in the assay with CAKI-1 renal, in the assay on HCC-2998 colon, in the assay on HL-60(TB) leukemia, in the assay on HT29 colon, in the assay with K-562 leukemia and in the assay on SF-268 CNS was greater than 100 µM in each case. In the assay on UO-31 renal, the TGI is greater than 100 µM.
As for `N#CC(C#N)=C1CCCCc2ccc([N+](=O)[O-])cc21`, the TGI in the assay on CAKI-1 renal, with HCC-2998 colon, in the assay with HL-60(TB) leukemia, in the assay on HS 578T breast, with HT29 colon and in the assay with K-562 leukemia was greater than 100 µM throughout. Besides, the TGI with MDA-MB-231 breast, in the assay with MDA-MB-435, in the assay with SF-268 CNS and in the assay on UO-31 renal was greater than 100 µM in each case.
Turning to `COc1cc2c3c(n(C4CCNCC4)c(=O)c2cc1OC)-c1cc2c(cc1C3=O)OCO2`, the GI50 is 0.295 µM in the assay with CAKI-1 renal; 1.34 µM in the assay on HCC-2998 colon; 0.364 µM in the assay with HL-60(TB) leukemia; 0.264 µM in the assay with HT29 colon; 1.19 µM with MDA-MB-435. Also, the TGI was found to be 1.6 µM in the assay with CAKI-1 renal; 2.71 µM with HCC-2998 colon; 1.49 µM in the assay on HL-60(TB) leukemia; 2.33 µM in the assay with HT29 colon; 2.6 µM with MDA-MB-435.
In the case of `O=C(O)Cc1[nH]cnc1C(=O)O`, the TGI in the assay with CAKI-1 renal, in the assay on HCC-2998 colon, in the assay with HL-60(TB) leukemia, with HS 578T breast, in the assay on HT29 colon and with K-562 leukemia was greater than 100 µM in each case. Moreover, the TGI in the assay on MDA-MB-231 breast, in the assay with MDA-MB-435, with SF-268 CNS and in the assay on UO-31 renal was greater than 100 µM throughout.
Take `CSc1ccc(-c2cc(-c3nc4ccccc4[nH]3)nc3[nH]c(-c4nc5ccccc5[nH]4)cc(=O)c23)cc1`: the TGI in the assay with CAKI-1 renal is greater than 100 µM; with HCC-2998 colon, 42.7 µM; with HL-60(TB) leukemia, greater than 100 µM; in the assay with HS 578T breast, greater than 100 µM; in the assay on HT29 colon, greater than 100 µM; in the assay with K-562 leukemia, greater than 100 µM. For the same compound, the TGI with MDA-MB-435, with SF-268 CNS and in the assay with UO-31 renal was greater than 100 µM throughout.

These data come from PubChem BioAssay (NCI).
